Columns and labels:
Experiment in all cases: relative viability (nuclei count vs DMSO), 5 days (fraction); higher = more cells survive
[1] = compound: C1=CC2=NC=CN=C2C=C1/C=C/3\C(=O)NC(=O)S3 + CC(=O)c1c(C)c2cnc(Nc3ccc(N4CCNCC4)cn3)nc2n(C2CCCC2)c1=O [Palbociclib] (partner 0.5 µM)
In short: (§1)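 Values are medians from duplicate plates. Each reflects relative viability, defined as the nuclei count of treated wells over that of vehicle wells. Lung cancer cell lines in 1536-well plates were pin-tool dosed one day after seeding with one drug alone or with a fixed anchor-drug dose plus five library-drug doses (not always all listed) in √10 steps, then fixed, stained and imaged at 4× after 5 days.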

[2] = compound: CCN1CCN(c2ccc(Nc3cc(N(C)C(=O)Nc4c(Cl)c(OC)cc(OC)c4Cl)ncn3)cc2)CC1 [BGJ398] + COc1cc2c(Oc3ccc(NC(=O)C4(C(=O)Nc5ccc(F)cc5)CC4)cc3F)ccnc2cc1OCCCN1CCOCC1 [Foretinib] (partner 0.25 µM)
In short: as §1

[3] = compound: CCN1CCN(c2ccc(Nc3cc(N(C)C(=O)Nc4c(Cl)c(OC)cc(OC)c4Cl)ncn3)cc2)CC1 [BGJ398] + Cc1nc(Nc2ncc(C(=O)Nc3c(C)cccc3Cl)s2)cc(N2CCN(CCO)CC2)n1 [Dasatinib] (partner 0.075 µM)
In short: as §1

[4] = compound: CCN1CCN(c2ccc(Nc3cc(N(C)C(=O)Nc4c(Cl)c(OC)cc(OC)c4Cl)ncn3)cc2)CC1 [BGJ398] + Nc1nc2[nH]cc(CCc3ccc(C(=O)N[C@@H](CCC(=O)O)C(=O)O)cc3)c2c(=O)[nH]1 [Pemetrexed] (partner 0.2 µM)
In short: as §1

UMC-11 gave a relative viability ([1]; first compound 0.02 µM) of 0.341, a relative viability ([1]; first compound 0.06325 µM) of 0.328 and a relative viability ([1]; first compound 0.2 µM) of 0.33. The relative viability ([1]; first compound 0.6325 µM) was 0.328, the relative viability ([1]; first compound 2 µM) was 0.414 and the relative viability ([2]; first compound 0.01 µM) was 0.962. It also gave a relative viability ([2]; first compound 0.03162 µM) of 1, a relative viability ([2]; first compound 0.1 µM) of 1.14 and a relative viability ([2]; first compound 0.3162 µM) of 0.977. It also gave a relative viability ([2]; first compound 1 µM) of 0.924, a relative viability ([3]; first compound 0.01 µM) of 0.463 and a relative viability ([3]; first compound 0.03162 µM) of 0.465. The relative viability ([3]; first compound 0.1 µM) was 0.51, the relative viability ([3]; first compound 0.3162 µM) was 0.454 and the relative viability ([3]; first compound 1 µM) was 0.443. It also gave a relative viability ([4]; first compound 0.01 µM) of 0.799, a relative viability ([4]; first compound 0.03162 µM) of 0.747 and a relative viability ([4]; first compound 0.1 µM) of 0.854. For the same cell line, the relative viability ([4]; first compound 0.3162 µM) was 0.814 and the relative viability ([4]; first compound 1 µM) was 0.758.
